In patent US20140271767A1, “BIOCOMPATIBLE HYDROGEL POLYMER MATRIX FOR DELIVERY OF CELLS” (Medicus Biosciences LLC, priority 2013, published 2014):

Experiment: Drug elution from polymer (UV-Vis)
Assay type: physicochemical
Conditions: within the first three days; Nolvasan polymer, 2% chlorhexidine dose (50 mg), 2 mL PBS per 1 g polymer, 37° C.
Protocol: A Thermo Scientific GENESYS 10S UV-Vis spectrophotometer was used to quantify the release of various drugs from several polymers. First, the reference drug or drug solution was dissolved in an appropriate solvent. Typically, phosphate buffered saline (PBS), ethanol or dimethylsulfoxide (DMSO) were used as the solvent. Next, the optimal absorption peak for identifying and quantifying the drug was determined by performing a scan of the drug solution between 200 and 1000 nm. With the absorption peak selected, a reference curve was established by measuring the peak absorbance for various concentrations of the drug. […]
Elution samples were collected daily by decanting the PBS solution from the polymer. The volume of sample collected was recorded. […] The elution sample was analyzed by first diluting the sample in the appropriate solvent using analytical pipettes such that the measured absorbance was in the range determined by the reference curve. The dilution factor was recorded. The drug concentration was calculated from the measured absorbance via the reference curve and the dilution factor. The drug amount was calculated by multiplying the drug concentration with the sample volume. The percent elution for that day was calculated by dividing the drug amount by the total amount of drug administered. […]

## [H]/N=C(\N/C(=N/[H])NCCCCCCNC(=N)NC(=N)Nc1ccc(Cl)cc1)Nc1ccc(Cl)cc1 [chlorhexidine]
  chlorhexidine released from polymer: Almost half
